Patent publication US11857535B2, “Methods of treating mutant lymphomas” (Kymera Therapeutics, Inc., priority 2020, dated 2024)
In brackets after ≈: the same amount, converted by molar mass.

Legend:
[1] = tested on: OCI-LY10 tumor xenographs; assay: OCI-Ly10 xenograph tumor study (tumor volume, TGI, responses); assay type: in vivo, mouse; set-up: key to TGI (D14): TGI % = (1−T/C)×100; details: for TGI (28D): TGI=(1-T/C)100
Description: Cell Culture: The OCI-LY10 tumor cells were maintained as suspension in RPMI1640 medium supplemented with 10% fetal bovine serum, 100 U/mL penicillin and 100 μg/mL streptomycin at 37° C. in an atmosphere of 5% CO2 in air. The tumor cells were routinely subcultured twice weekly by trypsin-EDTA treatment. The cells growing in an exponential growth phase were harvested and counted for tumor inoculation.
Animals: C.B. 17 SCID, female, 6-8 weeks, weighing approximately 16-18 g were used. Animals were housed and maintained according to IACUC protocols.
Tumor Inoculation: Each mouse was inoculated subcutaneously at the right flank with OCI-LY10 tumor cells (10×10^6) in 0.2 mL of PBS with matrigel for tumor development. The treatments were started when the tumor sizes reached approximately 150-450 mm^3 for the studies.
Assignment to Groups: Before commencement of treatment, all animals were weighed and the tumor volumes were measured. Since the tumor volume can affect the compound PK/PD, mice are assigned into groups using an Excel-based randomization procedure performing stratified randomization based upon their tumor volumes.
Observation: After tumor inoculation, the animals were checked daily for morbidity and mortality. During routine monitoring, the animals were checked for any effects of tumor growth and treatments on behavior such as mobility, food and water consumption, body weight gain/loss, eye/hair matting and any other abnormalities. Mortality and observed clinical signs were recorded for individual animals in detail.
Data Collection: Tumor volumes were measured in two dimensions using a caliper, and the volumes were expressed in mm^3 using the formula: ″V=(L×W×W)/2, where V is tumor volume, L is tumor length (the longest tumor dimension) and W is tumor width (the longest tumor dimension perpendicular to L).
TGI (tumor growth inhibition)=(1−T/C)100; PR (partial response)≥50% tumor shrinkage; CR (complete response)>95% tumor shrinkage from starting volume

[2] = Solubility in oral dosing vehicle; assay type: physicochemical; details: 10% HP-β-CD vehicle (oral dosing vehicle), aqueous with cosolvent or surfactant or cyclodextrin; 10% HP-β-CD in water at pH 3.5 (w/v), 25 C; read-out: measured solubility
Description: Formulation: 10% HP-β-CD in water at pH 3.5 (w/v) in water at pH 3.5 (w/v) • Prepare the 10% HP-β-CD vehicle on a (w/v) basis • Add compound with stirring. • Heat to ˜50 C for 10 minutes. Can also sonicate. • Adjust pH to 3.5. • Heat for another 10-20 minutes at ˜50 C. • Check and adjust the pH as needed. • Expect solution as the measured solubility was 10 mg/mL at 25 C.

[3] = 10 mg/kg PO, D1-7 (line noted BENCHMARK)
[4] = 10 mg/kg PO, D1-7 (second line of this schedule)

CC(C)(O)c1cc2nc([C@H]3CC[C@H](CN4CC5(CC(CCNc6cccc7c6C(=O)N(C6CCC(=O)NC6=O)C7=O)C5)C4)CC3)sc2cc1NC(=O)c1cccc(C(F)(F)F)n1 (stereo partly drawn) [Compound A, N-(2-((1r,4r)-4-((6-(2-((2-(2,6-dioxopiperidin-3-yl)-1,3-dioxoisoindolin-4-yl)amino)ethyl)-2-azaspiro[3.3]heptan-2-yl)methyl)cyclohexyl)-5-(2-hydroxypropan-2-yl)benzo[d]thiazol-6-yl)-6-(trifluoromethyl)picolinamide]
PR (partial response), animals ([1]; 3 mg/kg IV, D1, 2, 8, 9): 3 | TGI (D14) ([1]; 3 mg/kg IV, D1, 2, 8, 9): 89 | PR (partial response), animals ([1]; 3 mg/kg IV, D1, 4, 8, 11): 3 | TGI (D14) ([1]; 3 mg/kg IV, D1, 4, 8, 11): 89 | PD (progressive disease), animals ([1]; 5 mg/kg PO, D1-4, 15-18): 1 | TGI (D14) ([1]; 5 mg/kg PO, D1-4, 15-18): 62 | Notes ([1]; 5 mg/kg PO, D1-4, 15-18, note continues 'D14'): All tumors growing after | PR (partial response), animals ([1]; 5 mg/kg PO, D1-7): 2 | TGI (D14) ([1]; 5 mg/kg PO, D1-7): 75 | Notes ([1]; 5 mg/kg PO, D1-7, note continues 'D14'): All tumors growing after | PR (partial response), animals ([1]; 6 mg/kg IV, D1, 2, 8, 9): 5 | TGI (D14) ([1]; 6 mg/kg IV, D1, 2, 8, 9): 94 | PR (partial response), animals ([1]; 10 mg/kg PO, D1, 2, 8, 9): 2 | TGI (D14) ([1]; 10 mg/kg PO, D1, 2, 8, 9): 88 | Notes ([1]; 10 mg/kg PO, D1, 2, 8, 9, note continues 'and continue trending down'): All show tumor regression | PR (partial response), animals ([1]; 10 mg/kg PO, D1, 4, 8, 11): 5 | TGI (D14) ([1]; 10 mg/kg PO, D1, 4, 8, 11): 85 | Notes: PR on D18, animals ([1]; 10 mg/kg PO, D1, 4, 8, 11, D18): 6 | Notes: near PR on D18, animals ([1]; 10 mg/kg PO, D1, 4, 8, 11, D18): 1 | PD (progressive disease), animals ([1]; 10 mg/kg PO, D1-3): 1 | PR (partial response), animals ([1]; 10 mg/kg PO, D1-3): 5 | TGI (D14) ([1]; 10 mg/kg PO, D1-3): 82 | Notes ([1]; 10 mg/kg PO, D1-3, note continues 'regression'): All SD show some | PR (partial response), animals ([1]; 10 mg/kg PO, D1-4, 15-18): 7 | TGI (D14) ([1]; 10 mg/kg PO, D1-4, 15-18): 87 | Notes ([1]; 10 mg/kg PO, D1-4, 15-18, note continues 'significantly from D10'): All tumors shrank | CR (complete response), animals [1, 3]: 1 | PR (partial response), animals [1, 3]: 6 | TGI (D14) [1, 3]: 96 | CR (complete response), animals [1, 4]: 1 | PR (partial response), animals [1, 4]: 6 | TGI (D14) [1, 4]: 97 | PR (partial response), animals ([1]; 12 mg/kg IV, D1, 8): 5 | TGI (D14) ([1]; 12 mg/kg IV, D1, 8): 94 | Notes ([1]; 12 mg/kg IV, D1, 8,, note continues 'and continue trending down'): All show tumor regression | PR (partial response), animals ([1]; 15 mg/kg PO, D1, 2, 8, 9): 7 | TGI (D14) ([1]; 15 mg/kg PO, D1, 2, 8, 9): 91 | Notes ([1]; 15 mg/kg PO, D1, 2, 8, 9, note continues 'significantly from D10'): Very Active: Tumors shrank | Notes: tumors growing slightly ([1]; 15 mg/kg PO, D1, 8, 15): 2/5 are growing slightly | Notes: tumors with some regression ([1]; 15 mg/kg PO, D1, 8, 15): 3/5 show some regression; | TGI (D14) ([1]; 15 mg/kg PO, D1, 8, 15): 83 | CR (complete response), animals ([1]; 20 mg/kg PO, D1-3): 1 | PR (partial response), animals ([1]; 20 mg/kg PO, D1-3): 6 | TGI (D14) ([1]; 20 mg/kg PO, D1-3): 96 | CR (complete response), animals ([1]; 30 mg/kg PO, D1,2): 4 | PR (partial response), animals ([1]; 30 mg/kg PO, D1,2): 3 | TGI (D14) ([1]; 30 mg/kg PO, D1,2): 99 | Notes: CR by D18, animals ([1]; 30 mg/kg PO, D1,2, D18): 6 CR by D18 | CR (complete response), animals ([1]; 30 mg/kg PO, D1, 4, 8): 3 | PR (partial response), animals ([1]; 30 mg/kg PO, D1, 4, 8): 4 | TGI (D14) ([1]; 30 mg/kg PO, D1, 4, 8): 97 | Notes: CR at D18, animals ([1]; 30 mg/kg PO, D1, 4, 8, D18): 5 | Notes: PR at D18, animals ([1]; 30 mg/kg PO, D1, 4, 8, D18): 2 | Notes ([1]; 30 mg/kg PO, D1, 4, 8, at D18): Tumors continue to regress | CR (complete response), animals ([1]; 30 mg/kg PO, D1, 8, 15): 2 | PR (partial response), animals ([1]; 30 mg/kg PO, D1, 8, 15): 5 | TGI (D14) ([1]; 30 mg/kg PO, D1, 8, 15): 96 | CR (complete response), animals ([1]; 30 mg/kg PO, D1-3): 4 | PR (partial response), animals ([1]; 30 mg/kg PO, D1-3): 3 | TGI (D14) ([1]; 30 mg/kg PO, D1-3): 99 | Notes: CR by D18, animals ([1]; 30 mg/kg PO, D1-3, D18): 7 CR by D18 | CR (complete response), animals ([1]; 45 mg/kg PO, D1,2): 4 | PR (partial response), animals ([1]; 45 mg/kg PO, D1,2): 3 | TGI (D14) ([1]; 45 mg/kg PO, D1,2): 99 | Notes: CR by D18, animals ([1]; 45 mg/kg PO, D1,2, D18): 7 CR by D18 | CR (complete response), animals ([1]; 60 mg/kg PO, D1): 2 | PR (partial response), animals ([1]; 60 mg/kg PO, D1): 5 | TGI (D14) ([1]; 60 mg/kg PO, D1): 97 | tumor response in OCI-Ly10 xenographs ([1]; 3 mpk x 21 d): regressions | PR (partial response), animals ([1]; 3 mpk, PR ≥50% tumor shrinkage): 4 | TGI (28D) ([1]; 3 mpk): 91% | CR (complete response), animals ([1]; 10 mpk, CR >95% tumor shrinkage from starting volume): 5CR | TGI (28D) ([1]; 10 mpk): 99.9% | CR (complete response), animals ([1]; 30 mpk, CR >95% tumor shrinkage from starting volume): 5CR | TGI (28D) ([1]; 30 mpk): 99.9% | regressions compared with Compound B ([1]; OCI-Ly10 tumor xenographs, FIG. 2): more potent regressions than Compound B | IV versus PO activity ([1]; QW and BIW schedules, FIG. 3): equally active | Efficacy, IV versus PO ([1]; comparison of both routes of administration): Efficacy is equivalent between both ROA | tumor response on intermittent schedule ([1]; dosed BIW every 3 weeks, FIG. 3): induces regression | tumor response in OCI-Ly10 xenographs ([1]; higher doses (>10 mpk)): more rapid and complete regressions | Activity (class of schedule) ([1]; mg/kg: 5 PO D1-4,15-18, 5 PO D1-7, 15 PO D1,8,15): Insufficient | Activity (class of schedule) ([1]; mg/kg: 10 PO D1,2,8,9, 3 IV D1,2,8,9, 3 IV D1,4,8,11, 10 PO D1-3, 10 PO D1,4,8,11, 10 PO D1-4,15-18, 15 PO D1,2,8,9, 6 IV D1,2,8,9, 12 IV D1,8): Minimal | Activity (class of schedule) ([1]; mg/kg: 30 PO D1,8,15, 10 PO D1-7, 20 PO D1-3, 60 PO D1, 30 PO D1,4,8, 30 PO D1,2, 30 PO D1-3, 45 PO D1,2): Optimal | solubility [2]: 10000 µg/mL (≈ 11.5 mM)
